From patent US8395037B2, “Pharmaceutical compositions for treating/preventing motor organ diseases” (Mitsubishi Corporation, priority 2005, dated 2013)

Assays:
MMP-1 [1] = experiment: MMP-1 concentration in synovial fluid of osteoarthritis model knee joints (ELISA); assay type: in vivo, rabbit; settings: various concentrations, sequential measurement, versus control knees
Experimental: (§1) Sequential biochemical examinations of blood and synovial fluid were also performed (pre-administration and fourth- and eighth-week post-administration of water-solubilized fullerene). The observed biochemical examination items were (A) hepatic function (GOT and GPT), renal function (urea nitrogen and creatinine), and electrolytes (Na, K, and Cl), (B) extracellular matrix-degrading enzyme production ability (MMP-1, 3, and 13), and (C) cartilage matrix-synthesizing ability (proteoglycan). The items of (A) were measured by commercially available testing equipments and items of (B) and (C) were measured by ELISA method.

MMP-1 [2] = experiment: MMP-1 production in cultured chondrocytes treated with cartilage degenerating factor (ELISA); assay type: cell-based, human; settings: for Production of MMP-1: IL-1β or H2O2 treated chondrocytes, 50 or 100 μM, 24 h
Experimental: (§2) Chondrocytes isolated from human articular cartilage tissues were used for cultured cells. After obtaining informed consent, cartilage tissues were collected from surgically-removed tissues from eight osteoarthritis patients. The collected tissues were sliced and then treated in a liquid low-glucose Dulbecco's modified Eagle's medium (DMEM, manufactured by Gibco Co.) containing 1.5 mg/ml collagenase B at 37° C. overnight, to isolate chondrocytes for culture. The cells were normally cultured in a culture flask (culture area: 25 cm^2), and in a polystyrene culture dish (diameter: 6 cm) for use in the experiments. […]
(§3) Influence of hydroxylated C60 fullerene on cartilage matrix-degrading enzyme production which is enhanced by cartilage catabolism inducers was analyzed using the enzyme-linked immunoassay (ELISA) method.
(§4) Chondrocytes that had been isolated and cultured by the above method (1) were subjected to two passage cultures. […] After a 24 hour incubation, the culture supernatant was collected, and the concentrations of cartilage matrix-degrading enzymes, matrix metalloprotease (MMP)-1, 3, and 13, were measured.
(§5) The concentrations of MMP-1, MMP-3, and MMP-13 in the culture supernatant were determined using ELISA kits (kits for MMP-1 and MMP-3, manufactured by R&D Co.; and a kit for MMP-13, manufactured by Amersham), which is the standard technique currently known in the art. […] 100 μl of 1.5 N H3PO4 was added to each well to stop the color reaction, and the absorbance at 450 nm was measured using a microtiter plate reader. According to the instructions provided by the manufacturer, the measured concentrations were calibrated using a lyophilized control reagent.

MMP-13 [3] = experiment: MMP-13 concentration in synovial fluid of osteoarthritis model knee joints (ELISA); assay type: in vivo, rabbit; settings: various concentrations, sequential measurement, versus control knees
Experimental: as §1

MMP-13 [4] = experiment: MMP-13 production in cultured chondrocytes treated with cartilage degenerating factor (ELISA); assay type: cell-based, human; settings: for Production of MMP-13: IL-1β or H2O2 treated chondrocytes, 50 or 100 μM, 24 h
Experimental: as §2, §3, §4, §5

[5] = test system: osteoarthritis patient-derived chondrocytes; experiment: Cytotoxicity test (XTT method) on chondrocytes; assay type: cell-based, human; settings: for Cell survival rate (%): relative to control (medium alone) = 100%
Experimental: Chondrocytes isolated from human articular cartilage tissues were used for cultured cells. After obtaining informed consent, cartilage tissues were collected from surgically-removed tissues from eight osteoarthritis patients. The collected tissues were sliced and then treated in a liquid low-glucose Dulbecco's modified Eagle's medium (DMEM, manufactured by Gibco Co.) containing 1.5 mg/ml collagenase B at 37° C. overnight, to isolate chondrocytes for culture. The cells were normally cultured in a culture flask (culture area: 25 cm^2), and in a polystyrene culture dish (diameter: 6 cm) for use in the experiments. The cell culture was performed using a DMEM medium added with inactivated fetal bovine serum (FBS, manufactured by TRACE Co.) at 10% volume of the medium, and also 2 mM L-glutamine, 25 mM HEPES, and penicillin and streptomycin at 100 units/ml, in either a CO2 incubator (normoxic condition) which was set at 5% CO2+95% air, or a low oxygen chamber (hypoxic condition) which was set at 1% O2+5% CO2+94% N2, at 37° C. under saturated humidity.
Influence of hydroxylated C60 fullerene on the survival rate of chondrocytes was evaluated by a cytotoxicity test (XTT method). Hydroxylated C60 fullerene (manufactured by Frontier Carbon Co.) was dissolved in polyethylene glycol to prepare a 10 mM stock, which was then stored in a dark place at −20° C. The concentration of hydroxylated C60 fullerene for the test was 1.0 μM, 10.0 μM, and 100.0 μM.
50 μl each of chondrocytes in the logarithmic growth phase were added into a 96-well microplate at the concentration of 5.0×10^5 cells/ml, and incubated in either a CO2 incubator (normoxic condition) or a low oxygen chamber (hypoxic condition) for 24 hours. Hydroxylated C60 fullerene was added into the 96-well microplate at each target concentration described above (final volume: 100 μl), and the cells were incubated for 48 hours or 96 hours. Then, the medium was replaced to remove hydroxylated C60 fullerene, and the cells were incubated for another 12 hours. To stain surviving cells, 50 μl XTT (2,3bis(2-methoxy-4-nitro-5-sulfophenyl)-5-[(phenylamino)carbonyl]-2H-tetrazolium hydroxide, inner salt) reagent was added to each well, and the cells were incubated for four hours. Immediately thereafter, the absorbance at 450 nm was measured with a plate reader and the cell survival rates were analyzed. The results are shown as survival rates. The survival rate of the control group in a medium alone without hydroxylated C60 fullerene was assumed to be 100%, and the survival rate of the hydroxylated C60 fullerene-administered groups is expressed as relative values against the control group.

cultured chondrocytes = experiment: Chondrocyte-proliferation ability under cartilage degenerating factors; assay type: cell-based; settings: cultured chondrocytes treated with IL-1β and H2O2
[6] = test system: osteoarthritis model rabbits
Experimental: Osteoarthritis animal model was prepared according to a general method. NZW-strain male rabbits (2 to 2.5 kg, purchased from Kitayama Labes Co.) were habituated for about one week, and both knee joint sites were shaved and disinfected with an iodine antiseptic agent under anesthesia with a combined administration of ketamine hydrochloride and xylazine (intramuscular administration, or intravenous administration if the anesthetic effect was low). The epidermis inside the knee joints was incised to expose the anterior cruciate ligament and medial collateral ligament, which were then cut out. After confirming and incising the articular capsule, the medial meniscus was exposed and totally extracted. Tissues around the articular capsule, patellar tendon, and epidermis were sutured thereafter. At the time of suturing, the operated site was washed with a physiological salt solution containing an antibiotic (injectable Viccillin, Meiji Seika) (500 mg (titer) as ampicillin sodium/20.0 ml of physiological saline solution).
From the postoperative first week, 2.0 ml of a hydroxylated C60 fullerene solution (100 μM, adjusted with the solvent polyethylene glycol) was injected into the right knee joint cavity, and 2.0 ml of solvent alone was injected into the left knee joint cavity, using a 23-gauge injection needle intraarticularly twice a week. […] Thickness of the degenerated cartilage layer and the number of chondrocytes in the degenerated cartilage layer were measured. The thickness of the degenerated cartilage layer was expressed as a relative value assuming that the immediate postoperative thickness (zeroth week) was 100%.
Moreover, proteoglycan content decrease in articular cartilage involved with cartilage degeneration was evaluated by safranin O staining. The evaluation result was expressed as an area ratio (%) to immediate postoperative proteoglycan-stained area.

hydroxylated C60 fullerene
MMP-1 concentration in synovial fluid (MMP-1 [1]): MMP-1 production inhibitory effect was observed
Production of MMP-1 (MMP-1 [2]): inhibited in all cases
Production of MMP-1 (MMP-1 [2]; listed as fullerene): decreased the amount of MMP-1 produced
Inhibitory effect on production of MMP-1 (MMP-1 [2]; hypoxic condition): also observed
MMP-13 concentration in synovial fluid (MMP-13 [3]): MMP-13 production inhibitory effect was observed
Production of MMP-13 (MMP-13 [4]): inhibited in all cases
Production of MMP-13 (MMP-13 [4]; listed as fullerene): decreased the amount of MMP-13 produced
Inhibitory effect on production of MMP-13 (MMP-13 [4]; hypoxic condition): also observed
Cell survival rate (%) ([5]; 1.0 μM, 48 hour incubation): 98.5 ± 6.5%
Cell survival rate (%) ([5]; 1.0 μM, 96 hour incubation): 99.6 ± 3.8%
Cell survival rate (%) ([5]; 10.0 μM, 48 hour incubation): 101.3 ± 5.8%
Cell survival rate (%) ([5]; 10.0 μM, 96 hour incubation): 98.2 ± 2.6%
Cell survival rate (%) ([5]; 100.0 μM, 48 hour incubation): 99.5 ± 4.2%
Cell survival rate (%) ([5]; 100.0 μM, 96 hour incubation): 103.4 ± 2.2%
Toxicity to chondrocytes ([5]; 1.0-100.0 μM, 48 or 96 hours): not to be toxic to chondrocytes
Decrease of chondrocyte-proliferation ability (cultured chondrocytes): inhibited decrease of chondrocyte-proliferation ability
Chondrocytes and cartilage matrix, histology ([6]; 100 μM, 2.0 ml intraarticular twice a week, postoperative sixth and eighth week): histologically maintained
Degeneration of the knee joint cartilage tissue ([6]; 100 μM, 2.0 ml intraarticular twice a week, versus solvent alone): mild
Swelling/flare in articular local parts, influence on systemic condition ([6]; rabbit, in vivo): neither swelling/flare in articular local parts nor influence on systemic condition was observed
